Reference: BigSolDB 2.1

Nc1ncccn1
Settings | solubility (mole fraction)
in 2-butanone, 272.65 K | 0.0201
in 2-butanone, 278.25 K | 0.0249
in 2-butanone, 283.55 K | 0.0317
in 2-butanone, 288.15 K | 0.0361
in 2-butanone, 293.15 K | 0.0418
in 2-butanone, 297.85 K | 0.0512
in 2-butanone, 302.65 K | 0.0621
in 2-butanone, 307.25 K | 0.0721
in 2-butanone, 312.55 K | 0.0865
in 2-butanone, 317.35 K | 0.0988
in 2-butanone, 323.35 K | 0.118
in 2-pentanone, 272.65 K | 0.0158
in 2-pentanone, 278.25 K | 0.0192
in 2-pentanone, 283.55 K | 0.0238
in 2-pentanone, 288.15 K | 0.027
in 2-pentanone, 293.15 K | 0.0309
in 2-pentanone, 297.85 K | 0.0372
in 2-pentanone, 302.65 K | 0.0446
in 2-pentanone, 307.25 K | 0.0513
in 2-pentanone, 312.55 K | 0.0603
in 2-pentanone, 317.35 K | 0.0684
in 2-pentanone, 323.35 K | 0.0808
in acetone, 272.65 K | 0.0222
in acetone, 278.25 K | 0.027
in acetone, 283.55 K | 0.0311
in acetone, 288.15 K | 0.0359
in acetone, 293.15 K | 0.0415
in acetone, 297.85 K | 0.0478
in acetone, 302.65 K | 0.0545
in acetone, 307.25 K | 0.0618
in acetone, 312.55 K | 0.0702
in acetone, 317.35 K | 0.0802
in acetone, 323.35 K | 0.0913
in acetonitrile, 272.65 K | 0.0108
in acetonitrile, 278.25 K | 0.0128
in acetonitrile, 283.55 K | 0.0156
in acetonitrile, 288.15 K | 0.0176
in acetonitrile, 293.15 K | 0.0203
in acetonitrile, 297.85 K | 0.0251
in acetonitrile, 302.65 K | 0.0308
in acetonitrile, 307.25 K | 0.0366
in acetonitrile, 312.55 K | 0.0449
in acetonitrile, 317.35 K | 0.0531
in acetonitrile, 323.35 K | 0.0661
in cyclohexanone, 272.65 K | 0.0371
in cyclohexanone, 278.25 K | 0.0457
in cyclohexanone, 283.55 K | 0.0529
in cyclohexanone, 288.15 K | 0.0618
in cyclohexanone, 293.15 K | 0.072
in cyclohexanone, 297.85 K | 0.0835
in cyclohexanone, 302.65 K | 0.0952
in cyclohexanone, 307.25 K | 0.109
in cyclohexanone, 312.55 K | 0.124
in cyclohexanone, 317.35 K | 0.143
in cyclohexanone, 323.35 K | 0.164
in cyclopentanone, 272.65 K | 0.0605
in cyclopentanone, 278.25 K | 0.0721
in cyclopentanone, 283.55 K | 0.0815
in cyclopentanone, 288.15 K | 0.0918
in cyclopentanone, 293.15 K | 0.103
in cyclopentanone, 297.85 K | 0.116
in cyclopentanone, 302.65 K | 0.128
in cyclopentanone, 307.25 K | 0.14
in cyclopentanone, 312.55 K | 0.154
in cyclopentanone, 317.35 K | 0.169
in cyclopentanone, 323.35 K | 0.185
in ethanol, 272.65 K | 0.00996
in ethanol, 278.25 K | 0.0138
in ethanol, 283.55 K | 0.0184
in ethanol, 288.15 K | 0.0234
in ethanol, 293.15 K | 0.0302
in ethanol, 297.85 K | 0.0384
in ethanol, 302.65 K | 0.0485
in ethanol, 307.25 K | 0.06
in ethanol, 312.55 K | 0.0765
in ethanol, 317.35 K | 0.0945
in ethanol, 323.35 K | 0.123
in ethyl acetate, 272.65 K | 0.0337
in ethyl acetate, 278.25 K | 0.0366
in ethyl acetate, 283.55 K | 0.0407
in ethyl acetate, 288.15 K | 0.0436
in ethyl acetate, 293.15 K | 0.0474
in ethyl acetate, 297.85 K | 0.0536
in ethyl acetate, 302.65 K | 0.0609
in ethyl acetate, 307.25 K | 0.0678
in ethyl acetate, 312.55 K | 0.0779
in ethyl acetate, 317.35 K | 0.0867
in ethyl acetate, 323.35 K | 0.101
in ethyl formate, 272.65 K | 0.0286
in ethyl formate, 278.25 K | 0.0364
in ethyl formate, 283.55 K | 0.0471
in ethyl formate, 288.15 K | 0.0542
in ethyl formate, 293.15 K | 0.0631
in ethyl formate, 297.85 K | 0.0772
in ethyl formate, 302.65 K | 0.0928
in ethyl formate, 307.25 K | 0.106
in ethyl formate, 312.55 K | 0.125
in ethyl formate, 317.35 K | 0.14
in ethyl formate, 323.35 K | 0.163
in isobutanol, 272.65 K | 0.00833
in isobutanol, 278.25 K | 0.0116
in isobutanol, 283.55 K | 0.0155
in isobutanol, 288.15 K | 0.02
in isobutanol, 293.15 K | 0.0259
in isobutanol, 297.85 K | 0.0331
in isobutanol, 302.65 K | 0.0423
in isobutanol, 307.25 K | 0.0528
in isobutanol, 312.55 K | 0.0669
in isobutanol, 317.35 K | 0.0828
in isobutanol, 323.35 K | 0.107
in isopentanol, 272.65 K | 0.0102
in isopentanol, 278.25 K | 0.0136
in isopentanol, 283.55 K | 0.0174
in isopentanol, 288.15 K | 0.0215
in isopentanol, 293.15 K | 0.0264
in isopentanol, 297.85 K | 0.0321
in isopentanol, 302.65 K | 0.0385
in isopentanol, 307.25 K | 0.0458
in isopentanol, 312.55 K | 0.0546
in isopentanol, 317.35 K | 0.0638
in isopentanol, 323.35 K | 0.0769
in isopropanol, 272.65 K | 0.00686
in isopropanol, 278.25 K | 0.00999
in isopropanol, 283.55 K | 0.0139
in isopropanol, 288.15 K | 0.0184
in isopropanol, 293.15 K | 0.025
in isopropanol, 297.85 K | 0.0325
in isopropanol, 302.65 K | 0.0422
in isopropanol, 307.25 K | 0.0539
in isopropanol, 312.55 K | 0.0718
in isopropanol, 317.35 K | 0.0918
in isopropanol, 323.35 K | 0.122
in methanol, 272.65 K | 0.0213
in methanol, 278.25 K | 0.028
in methanol, 283.55 K | 0.0359
in methanol, 288.15 K | 0.0444
in methanol, 293.15 K | 0.0554
in methanol, 297.85 K | 0.0675
in methanol, 302.65 K | 0.0823
in methanol, 307.25 K | 0.0984
in methanol, 312.55 K | 0.121
in methanol, 317.35 K | 0.145
in methanol, 323.35 K | 0.18
in methyl acetate, 272.65 K | 0.0189
in methyl acetate, 278.25 K | 0.0234
in methyl acetate, 283.55 K | 0.0296
in methyl acetate, 288.15 K | 0.0341
in methyl acetate, 293.15 K | 0.0397
in methyl acetate, 297.85 K | 0.0488
in methyl acetate, 302.65 K | 0.0596
in methyl acetate, 307.25 K | 0.0694
in methyl acetate, 312.55 K | 0.0838
in methyl acetate, 317.35 K | 0.0956
in methyl acetate, 323.35 K | 0.115
in n-butanol, 272.65 K | 0.00804
in n-butanol, 278.25 K | 0.0114
in n-butanol, 283.55 K | 0.0157
in n-butanol, 288.15 K | 0.0205
in n-butanol, 293.15 K | 0.027
in n-butanol, 297.85 K | 0.0349
in n-butanol, 302.65 K | 0.0449
in n-butanol, 307.25 K | 0.0569
in n-butanol, 312.55 K | 0.0743
in n-butanol, 317.35 K | 0.0934
in n-butanol, 323.35 K | 0.123
in n-pentanol, 272.65 K | 0.0117
in n-pentanol, 278.25 K | 0.0147
in n-pentanol, 283.55 K | 0.0182
in n-pentanol, 288.15 K | 0.0219
in n-pentanol, 293.15 K | 0.0264
in n-pentanol, 297.85 K | 0.0314
in n-pentanol, 302.65 K | 0.0373
in n-pentanol, 307.25 K | 0.0437
in n-pentanol, 312.55 K | 0.0521
in n-pentanol, 317.35 K | 0.0609
in n-pentanol, 323.35 K | 0.0733
in n-propanol, 272.65 K | 0.0142
in n-propanol, 278.25 K | 0.0187
in n-propanol, 283.55 K | 0.0243
in n-propanol, 288.15 K | 0.03
in n-propanol, 293.15 K | 0.0377
in n-propanol, 297.85 K | 0.0462
in n-propanol, 302.65 K | 0.0567
in n-propanol, 307.25 K | 0.0687
in n-propanol, 312.55 K | 0.0849
in n-propanol, 317.35 K | 0.102
in n-propanol, 323.35 K | 0.127
